# According to publication PMC10734772 (Turkish Journal of Chemistry, 2021):
# Tests used:
# Format in all cases: cell-based
# [1] = MTT assay, Hek293T non-leukemic control cells; details: human, read-out: Viability rate
# Experimental: (§1) K562, Jurkat, Molt-4, and Nalm-6 cell lines were cultured in RPMI-1640 medium (ECM2001, Euroclone), Reh cell line was cultured in DMEM medium (LM-D1111-Biosera) Hek293T cell line was cultured in IMDM medium (AL070A - HiMedia) supplemented with 10% heat-inactivated fetal bovine serum (F7524-Merck & Co., USA,) penicillin and streptomycin (P4333-Sigma Aldrich). K562, Jurkat and Molt-4 cell lines were seeded as 4x10^5/ml, Reh and Nalm-6 cell lines were seeded 5x10^5/ml, Hek293T cell line was seed as 2x10^5/ml. All cells were incubated at 5% CO2 and 37 °C. All cell lines were kindly provided by Dr. M. Sayitoglu and Dr. Ö. Hatirnaz-Ng from Acibadem University.
# (§2) MTT assay is a 3-day test. On the first day, cell count was performed in Bio Rad TC-20 device with the help of trypan blue, each cell line was prepared by diluting to the specified concentrations and seeded in a 96-well plate as 100μL to each well and incubated for 1 day.
# (§3) Each compound was solved in DMSO, their stock solutions (33.3, 10, 5, 1 mM, and 300 μM) were prepared by diluting with the same solvent and they were stored under −20°C when they were not used.
# (§4) On the second day, stock solutions were subsequently diluted to various concentrations (0.3–200 μM) with related medium prior to experiments. Specified concentrations of the compounds were seeded in a 96-well plate as 100μL to each well and incubated for 24 h.
# (§5) After incubation (on the third day), to precipitate leukemia cells, the cell plate was centrifuged at 1500 rpm for 5 min. Then, 100 μL of supernatant was removed from each well carefully and 10 μl of MTT solution (5 mg/mL) was added to each well and incubated at 37 °C for 4 h. The 50 μl of supernatant was discarded from each well and 100 μl of DMSO was added to dissolve the formazan. Plates were shaken for 45 min to dissolve the dye. Then the optical density of each well was measured by using Thermo VarioSkan Flush Multimode Reader Quantum ST5-1100 at 570 nm wavelength.
# (§6) Subsequently, viability rate of the cells at each concentration, as percentage, was determined by following formula (1):
# (§7) Viability rate (%)=100-[(OD(control)-OD(sample))/OD(control)×100].OD=Optical Density
# (§8) The IC50 values were calculated by using GraphPad Prism. All the data presented as the mean of 6 replicates. Results were analyzed and illustrated with Graph Pad Prism (version 5; GraphPad Software, San Diego, CA, USA). Statistical analysis was performed using dose-response inhibition, log(inhibitor) vs response-variable slope, least squares (ordinary) fit.
# (§9) To evaluate in-vitro anti-cancer activity of the newly synthesized compounds, they were tested by using the MTT assay in the BCR-ABL positive leukemic cell line (K562), BCR-ABL negative leukemic cell lines (Nalm-6, Molt-4, Reh and Jurkat), and non-leukemic human embryonic kidney tissue (Hek293T) cell line. […] The viability rate of each concentration was calculated by the formula stated in material and methods, the viability rate results for each cell were presented in Table S2 and Figure S44.
# K562 = assay: MTT assay, K562 cells; details: Homo sapiens, 24 h, MTT, read-out: Viability rate
# Molt-4 = assay: MTT assay, Molt-4 cells; details: Homo sapiens, MOLT-4, 24 h, read-out: Viability rate
# Experimental: as §1, §2, §3, §4, §5, §6, §7, §8, §9
# Reh = assay: MTT assay, Reh cells; details: Homo sapiens, 24 h, read-out: Viability rate
# Experimental: as §1, §2, §3, §4, §5, §6, §7, §8, §9
# Jurkat = assay: MTT assay, Jurkat cells; details: Homo sapiens, 24 h, read-out: Viability rate
# Experimental: as §1, §2, §3, §4, §5, §6, §7, §8, §9
# Nalm-6 = assay: MTT assay, Nalm-6 cells; details: Homo sapiens, 24 h
# Experimental: After incubation (on the third day), to precipitate leukemia cells, the cell plate was centrifuged at 1500 rpm for 5 min. […] The 50 μl of supernatant was discarded from each well and 100 μl of DMSO was added to dissolve the formazan. Plates were shaken for 45 min to dissolve the dye. Then the optical density of each well was measured by using Thermo VarioSkan Flush Multimode Reader Quantum ST5-1100 at 570 nm wavelength.
# The IC50 values were calculated by using GraphPad Prism. All the data presented as the mean of 6 replicates. […] Statistical analysis was performed using dose-response inhibition, log(inhibitor) vs response-variable slope, least squares (ordinary) fit.
# [2] = system: K562, Nalm-6, Molt-4, Reh, Jurkat, Hek293T cell lines; assay: MTT assay, overall judgement over all cell lines; details: overall judgement in words; for 6 and 10: on all cell lines, except Reh
# Experimental: as §9
compound,measurement,setting,value
"Cc1ccnc(Nc2cc(NC(=O)c3ccc(CN4CCOCC4)cc3)ccc2C)c1 [Compound 9, N-(4-Methyl-3-((4-methylpyridin-2-yl)amino)phenyl)-4-(morhpolinomethyl)benzamide]","viability at 24 h, 0.3 µM","[1]; Hek293T cells (non-leukemic control cell line), 0.3 μM",91.7 ± 0.07%
same,"viability at 24 h, 0.5 µM","[1]; Hek293T cells (non-leukemic control cell line), 0.5 μM",89.8 ± 0.07%
same,"viability at 24 h, 3 µM","[1]; Hek293T cells (non-leukemic control cell line), 3 μM",87.4 ± 0.07%
same,"viability at 24 h, 5 µM","[1]; Hek293T cells (non-leukemic control cell line), 5 μM",86.2 ± 0.03%
same,"viability at 24 h, 10 µM","[1]; Hek293T cells (non-leukemic control cell line), 10 μM",79.3 ± 0.05%
same,"viability at 24 h, 15 µM","[1]; Hek293T cells (non-leukemic control cell line), 15 μM",78.3 ± 0.03%
same,"viability at 24 h, 20 µM","[1]; Hek293T cells (non-leukemic control cell line), 20 μM",76.5 ± 0.05%
same,"viability at 24 h, 30 µM","[1]; Hek293T cells (non-leukemic control cell line), 30 μM",68.9 ± 0.03%
same,"viability at 24 h, 50 µM","[1]; Hek293T cells (non-leukemic control cell line), 50 μM",62.2 ± 0.02%
same,"viability at 24 h, 70 µM","[1]; Hek293T cells (non-leukemic control cell line), 70 μM",56.2 ± 0.04%
same,"viability at 24 h, 100 µM","[1]; Hek293T cells (non-leukemic control cell line), 100 μM",54.8 ± 0.02%
same,"viability at 24 h, 150 µM","[1]; Hek293T cells (non-leukemic control cell line), 150 μM",46.9 ± 0.02%
same,"viability at 24 h, 200 µM","[1]; Hek293T cells (non-leukemic control cell line), 200 μM",42.8 ± 0.02%
same,"viability at 24 h, 1 µM","[1]; Hek293T cells, 1 μM",89.5 ± 0.05%
same,viability at 0.3 µM,"K562; K562, 0.3 μM",79.9 ± 0.09%
same,viability at 0.5 µM,"K562; K562, 0.5 μM",78.5 ± 0.03%
same,viability at 1 µM,"K562; K562, 1 μM",77.3 ± 0.08%
same,viability at 3 µM,"K562; K562, 3 μM",77 ± 0.04%
same,viability at 5 µM,"K562; K562, 5 μM",75.4 ± 0.09%
same,viability at 10 µM,"K562; K562, 10 μM",73.2 ± 0.08%
same,viability at 15 µM,"K562; K562, 15 μM",72 ± 0.06%
same,viability at 20 µM,"K562; K562, 20 μM",69.1 ± 0.03%
same,viability at 30 µM,"K562; K562, 30 μM",69.7 ± 0.07%
same,viability at 50 µM,"K562; K562, 50 μM",61.2 ± 0.08%
same,viability at 70 µM,"K562; K562, 70 μM",58.1 ± 0.1%
same,viability at 100 µM,"K562; K562, 100 μM",51.3 ± 0.06%
same,viability at 150 µM,"K562; K562, 150 μM",49.7 ± 0.05%
same,viability at 200 µM,"K562; K562, 200 μM",45%
same,viability at 0.3 µM,"Molt-4; Molt-4, 0.3 μM",93.2 ± 0.17%
same,viability at 0.5 µM,"Molt-4; Molt-4, 0.5 μM",87.8 ± 0.05%
same,viability at 1 µM,"Molt-4; Molt-4, 1 μM",78.4 ± 0.11%
same,viability at 3 µM,"Molt-4; Molt-4, 3 μM",72.7 ± 0.04%
same,viability at 5 µM,"Molt-4; Molt-4, 5 μM",71.7 ± 0.07%
same,viability at 10 µM,"Molt-4; Molt-4, 10 μM",69.3 ± 0.04%
same,viability at 15 µM,"Molt-4; Molt-4, 15 μM",68.9 ± 0.05%
same,viability at 20 µM,"Molt-4; Molt-4, 20 μM",63.5 ± 0.04%
same,viability at 30 µM,"Molt-4; Molt-4, 30 μM",62 ± 0.03%
same,viability at 50 µM,"Molt-4; Molt-4, 50 μM",61.5 ± 0.07%
same,viability at 70 µM,"Molt-4; Molt-4, 70 μM",59.8 ± 0.05%
same,viability at 100 µM,"Molt-4; Molt-4, 100 μM",59.5 ± 0.08%
same,viability at 150 µM,"Molt-4; Molt-4, 150 μM",58.6 ± 0.06%
same,viability at 200 µM,"Molt-4; Molt-4, 200 μM",54.7 ± 0.03%
same,viability at 0.3 µM,Reh; 0.3 μM,103.8 ± 0.01%
same,viability at 0.5 µM,Reh; 0.5 μM,101.3 ± 0.03%
same,viability at 1 µM,Reh; 1 μM,100.4 ± 0.01%
same,viability at 3 µM,Reh; 3 μM,100.5 ± 0.02%
same,viability at 5 µM,Reh; 5 μM,101.8 ± 0.03%
same,viability at 10 µM,Reh; 10 μM,103.4 ± 0.02%
same,viability at 15 µM,Reh; 15 μM,100.2 ± 0.02%
same,viability at 20 µM,Reh; 20 μM,99 ± 0.02%
same,viability at 30 µM,Reh; 30 μM,91.4 ± 0.01%
same,viability at 50 µM,Reh; 50 μM,88.2 ± 0.02%
same,viability at 70 µM,Reh; 70 μM,84.7 ± 0.03%
same,viability at 100 µM,Reh; 100 μM,87.1 ± 0.02%
same,viability at 150 µM,Reh; 150 μM,85 ± 0.01%
same,viability at 200 µM,Reh; 200 μM,82 ± 0.02%
same,viability at 0.3 µM,Jurkat; 0.3 μM,82.3 ± 0.05%
same,viability at 0.5 µM,Jurkat; 0.5 μM,82 ± 0.06%
same,viability at 1 µM,Jurkat; 1 μM,82 ± 0.05%
same,viability at 3 µM,Jurkat; 3 μM,81.7 ± 0.05%
same,viability at 5 µM,Jurkat; 5 μM,83 ± 0.04%
same,viability at 10 µM,Jurkat; 10 μM,81.9 ± 0.02%
same,viability at 15 µM,Jurkat; 15 μM,80.4 ± 0.02%
same,viability at 20 µM,Jurkat; 20 μM,79 ± 0.04%
same,viability at 30 µM,Jurkat; 30 μM,72.9 ± 0.07%
same,viability at 50 µM,Jurkat; 50 μM,68.1 ± 0.01%
same,viability at 70 µM,Jurkat; 70 μM,65.1 ± 0.02%
same,viability at 100 µM,Jurkat; 100 μM,49.6 ± 0.07%
same,viability at 150 µM,Jurkat; 150 μM,46.9 ± 0.05%
same,viability at 200 µM,Jurkat; 200 μM,39.1 ± 0.04%
same,viability at 0.3 µM,"Nalm-6; Nalm-6, 0.3 μM, MTT, read-out: Viability rate",86.4 ± 0.05%
same,viability at 0.5 µM,"Nalm-6; Nalm-6, 0.5 μM, MTT, read-out: Viability rate",85.2 ± 0.05%
same,viability at 1 µM,"Nalm-6; Nalm-6, 1 μM, MTT, read-out: Viability rate",72.7 ± 0.04%
same,viability at 3 µM,"Nalm-6; Nalm-6, 3 μM, MTT, read-out: Viability rate",64.5 ± 0.02%
same,viability at 5 µM,"Nalm-6; Nalm-6, 5 μM, MTT, read-out: Viability rate",62.6 ± 0.04%
same,viability at 10 µM,"Nalm-6; Nalm-6, 10 μM, MTT, read-out: Viability rate",53.2 ± 0.03%
same,viability at 15 µM,"Nalm-6; Nalm-6, 15 μM, MTT, read-out: Viability rate",50.1 ± 0.03%
same,viability at 20 µM,"Nalm-6; Nalm-6, 20 μM, MTT, read-out: Viability rate",49.2 ± 0.01%
same,viability at 30 µM,"Nalm-6; Nalm-6, 30 μM, MTT, read-out: Viability rate",48.1 ± 0.01%
same,viability at 50 µM,"Nalm-6; Nalm-6, 50 μM, MTT, read-out: Viability rate",43.9 ± 0.01%
same,viability at 70 µM,"Nalm-6; Nalm-6, 70 μM, MTT, read-out: Viability rate",42.8 ± 0.01%
same,viability at 100 µM,"Nalm-6; Nalm-6, 100 μM, MTT, read-out: Viability rate",42.5 ± 0.01%
same,viability at 150 µM,"Nalm-6; Nalm-6, 150 μM, MTT, read-out: Viability rate",42.5 ± 0.01%
same,viability at 200 µM,"Nalm-6; Nalm-6, 200 μM, MTT, read-out: Viability rate",39.2%
same,IC50,"Nalm-6; Nalm-6, MTT, range 0.3–200 μM, six replicates",1640 nM
same,anticancer activity according to MTT assay results,[2],relatively lower activity
